Assay results reported in patent EP0536603A1, “N-Methyl-nimodipine, process for its preparation, and its use as cerebral vasodilator” (BAYER AG, priority 1991, dated 1993).

Legend:
[1] = Plasma levels after oral administration; format: in vivo
Ratten = experiment: Rat swim test (Porsolt), antidepressant effect; format: in vivo; conditions: rats
Procedure: Die vorzügliche Eignung von N-Methyl-Nimodipin als Prodrug für Nimodipin zeigt sich auch in seiner antidepressiven Wirkung. Im Rattenschwimmtest (vgl. R.D. Porsolt et al., European Journal of Pharmacology 47; 379 bis 391) zeigen Ratten, die 20 mg der erfindungsgemäßen Verbindung per os appliziert bekommen, eine um ca. 20 % reduzierte Immobilitätsphase im Vergleich zur Kontrolle (n = 6).

Row | SMILES | Plasmaspiegel von Nimodipin und bekannten Nimodipinmetaboliten ([1]; oral administration of N-Methyl-nimodipin, after 15 minutes, compared with plasma levels after multiple administration of corresponding amounts of Nimodipin) | Plasmakonzentration an unverändertem N-Methyl-Nimodipin ([1]; oral administration, same time point (15 minutes), relative to the plasma levels of Nimodipin and metabolites) | reduzierte Immobilitätsphase im Vergleich zur Kontrolle (Ratten; 20 mg per os, n = 6) | Immobilitätsphase im Rattenschwimmtest, in words (Ratten; corresponding amount of Nimodipin, compared with N-Methyl-Nimodipin)
1 | COCCOC(=O)C1=C(C)N(C)C(C)=C(C(=O)OC(C)C)C1c1cccc([N+](=O)[O-])c1 (racemic) [N-Methyl-nimodipin, (±)-1,2,6-Trimethyl-4-(3-nitrophenyl)-1,4-dihydropyridin-3,5-dicarbonsäure-isopropyl-2-methoxyethyl-ester] | mindestens so hoch sind wie die entsprechenden Plasmaspiegel nach Mehrfachapplikation entsprechender Nimodipinmengen | etwa doppelt so hohe Plasmakonzentration | ca. 20% | 
2 | COCCOC(=O)C1=C(C)NC(C)=C(C(=O)OC(C)C)C1c1cccc([N+](=O)[O-])c1 (racemic) [Nimodipin, (±)2,6-Dimethyl-4-(3-nitrophenyl)-1,4-dihydropyridin-3,5-dicarbonsäure-isopropyl-2-methoxyethyl-ester] |  |  |  | vergleichbare Ergebnisse
